Where two headings read alike, the source gives them in different places.
How the values were obtained:
[1] = system: HEK-293 cells; type: cell-based, Human; conditions: for toxicity enhanced: co-treatment with UV 365 nm and 40 °C; for more cell death after exposing herbicide to 40 °C for 2 h: herbicide at LD50, no UV, compared with 4 °C and RT groups, 24-h cell exposure; for change in cell viability: 2 h of 40 °C/UV 254 nm; for increased toxicity: vs no UV
[2] = type: cell-based, Human; conditions: human, HEK-293 cells, relative cell viability, 4 °C/No UV = 100 %
[3] = outdoor aquatic mesocosms, at 25 ng mL^−1; cited from earlier work
[4] = cited from earlier work
[5] = system: isolated rat hepatocytes; conditions: rats and dogs, 100–200 μmole L-1 for 2–4 h; cited from earlier work
[6] = in vivo studies; cited from earlier work

Compound | toxicity enhanced [1] [%] | more cell death after exposing herbicide to 40 °C for 2 h [1] | viability at 24 h ([2]; 40 °C/No UV 2 h) [%] | viability at 24 h ([2]; 40 °C/UV 254 nm 2 h) [%] | viability at 24 h ([2]; 40 °C/UV 365 nm 2 h) [%] | change in cell viability [1] | half-life [3] [days] | LD50 (NIH TOXNET) [6] [mg/kg] | also measured
CCOCN(C(=O)CCl)c1c(C)cccc1CC [Acetochlor, acetochlor] | 55 | about 45% | 56.6 | 163 | 45.1 |  |  |  | 
CCc1cccc(CC)c1N(COC)C(=O)CCl [Alachlor, alachlor] | 80 | about 45% | 54.1 | 87.9 | 19.2 | no further changes | 19.8 |  | increased toxicity ([1]; herbicide exposed to UV 254 nm 2 h at 4 °C): 40%; increased toxicity ([1]; herbicide exposed to UV 365 nm 2 h at 4 °C): 24%
CCNc1nc(Cl)nc(NC(C)C)n1 [Atrazine, atrazine] |  |  |  |  |  |  |  |  | half-life ([4]; aerobic condition): about 150 days; half-life ([4]; anaerobic condition): more than 2 years; half-life ([4]; in soil): up to 6 months
CCc1cccc(C)c1N(C(=O)CCl)C(C)COC (stereo not shown) [Metolachlor, metolachlor] |  |  |  |  |  | no further changes | 33.8 |  | differences in cell viability responses between 4 °C, 23 °C and 40 °C groups ([1]; UV 254 nm and UV 365 nm for 2 h): no differences; temperature effect on herbicide-triggered cytotoxicity ([1]; herbicide at LD50 kept 2 h at 4, 23 or 40 °C, no UV, 4 °C group as control): no further effect; UV effect on cytotoxicity ([1]; no UV, UV 254 nm and UV 365 nm groups, 2 h at 4 °C): no further change; hepatotoxicity [5]: not
CC(C)Nc1nc(Cl)nc(NC(C)C)n1 [Propazine, propazine] |  |  |  |  |  |  |  | > 5000 | 
CCNc1nc(Cl)nc(NCC)n1 [Simazine, simazine] |  |  |  |  |  |  |  | > 5000 | 
